Experimental data: patent US10131652B2, “Pyrimidinyloxy benzene derivatives as herbicides” (E. I. DU PONT DE NEMOURS AND COMPANY, priority 2014, dated 2018)

Experiments:
Test in all cases: Test D pre-/postemergence plant response
Format in all cases: in vivo
[1] = system: oilseed rape (Brassica napus)
How it was run: (§1)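 Sown seed (loam/sand soil) treated preemergence; emerged plants, 1- to 4-leaf stage and 2 to 18 cm, treated postemergence in peat/vermiculite medium. Greenhouse incubation 13–15 d. Endpoint: visual 0–100 rating versus untreated.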

[2] = system: morningglory (Ipomoea coccinea)
How it was run: as §1

[3] = system: giant foxtail (Setaria faberii)
How it was run: as §1

[4] = system: pigweed (Amaranthus retroflexus)
How it was run: as §1

[5] = system: ragweed (common ragweed, Ambrosia elatior)
How it was run: as §1

[6] = system: johnsongrass (Sorghum halepense)
How it was run: as §1

[7] = system: yellow nutsedge (Cyperus esculentus)
How it was run: as §1

[8] = system: barnyardgrass (Echinochloa crus-galli)
How it was run: as §1

[9] = system: waterhemp (common waterhemp, Amaranthus rudis)
How it was run: as §1

[10] = system: lambsquarters (Chenopodium album)
How it was run: as §1

corn (Zea mays) = system: corn (Zea mays)
How it was run: as §1

soybean (Glycine max) = system: soybean (Glycine max)
How it was run: as §1

[11] = system: blackgrass (Alopecurus myosuroides)
How it was run: as §1

[12] = system: winter wheat (Triticum aestivum)
How it was run: as §1

[13] = system: velvetleaf (Abutilon theophrasti)
How it was run: as §1

[14] = system: Italian ryegrass (Lolium multiflorum)
How it was run: as §1

[15] = system: large (Lg) crabgrass (Digitaria sanguinalis)
How it was run: as §1

[16] = system: galium (catchweed bedstraw, Galium aparine)
How it was run: as §1

[17] = Postemergence, 31 g ai/ha, scale 0 to 100 (0 no effect, 100 complete control)
[18] = Postemergence, 62 g ai/ha, scale 0 to 100, 0 no effect, 100 complete control
[19] = Postemergence, 125 g ai/ha, scale 0 to 100, 0 no effect, 100 complete control
[20] = Preemergence, 16 g ai/ha, scale 0 to 100 (0 no effect, 100 complete control)
[21] = Preemergence, 31 g ai/ha, scale 0 to 100 (0 no effect, 100 complete control)
[22] = Preemergence, 62 g ai/ha, scale 0 to 100 (0 no effect, 100 complete control)

Cc1cc(-c2c(F)cccc2Oc2ncc(Cl)cn2)on1 [Compound 229]
95: Plant response rating (scale 0 to 100), Ragweed ([5]; Preemergence, 125 g ai/ha) | Plant response rating, Waterhemp [9, 20] | Plant response rating (scale 0 to 100), Lambsquarters ([10]; Preemergence, 125 g ai/ha) | Plant response rating (scale 0 to 100), Soybean (soybean (Glycine max); Preemergence, 125 g ai/ha)
90: Plant response rating, Oilseed Rape [1, 20] | Plant response rating, Foxtail, Giant [3, 22] | Plant response rating, Velvetleaf [13, 21]
0: Plant response rating, Morningglory [2, 20] | Plant response rating, Morningglory [2, 21] | Plant response rating (scale 0 to 100), Foxtail, Giant ([3]; Postemergence, 16 g ai/ha) | Plant response rating (scale 0 to 100), Johnsongrass ([6]; Postemergence, 16 g ai/ha) | Johnsongrass plant response rating [6, 17] | Plant response rating, Johnsongrass [6, 18] | Plant response rating (scale 0 to 100), Nutsedge, Yellow ([7]; Postemergence, 16 g ai/ha) | Nutsedge, Yellow plant response rating [7, 17] | Plant response rating, Nutsedge, Yellow [7, 20] | Plant response rating, Nutsedge, Yellow [7, 21] | Plant response rating, Corn (corn (Zea mays); [20]) | Plant response rating (scale 0 to 100), Blackgrass ([11]; Postemergence, 16 g ai/ha) | Plant response rating (scale 0 to 100), Wheat ([12]; Postemergence, 16 g ai/ha) | Plant response rating, Wheat [12, 20] | Plant response rating, Wheat [12, 21] | Plant response rating, Wheat [12, 22] | Plant response rating (scale 0 to 100), Ryegrass, Italian ([14]; Postemergence, 16 g ai/ha) | Ryegrass, Italian plant response rating [14, 17] | Ryegrass, Italian plant response rating [14, 18] | Plant response rating, Ryegrass, Italian [14, 20] | Plant response rating (scale 0 to 100), Crabgrass, Large ([15]; Postemergence, 16 g ai/ha) | Crabgrass, Large plant response rating [15, 17]
85: Plant response rating, Waterhemp [9, 19] | Plant response rating, Lambsquarters [10, 19] | Plant response rating (scale 0 to 100), Blackgrass ([11]; Preemergence, 125 g ai/ha) | Plant response rating, Crabgrass, Large [15, 21]
15: Plant response rating, Foxtail, Giant [3, 19] | Plant response rating, Barnyardgrass [8, 20] | Plant response rating, Blackgrass [11, 18] | Plant response rating, Blackgrass [11, 20] | Plant response rating, Blackgrass [11, 21] | Plant response rating (scale 0 to 100), Wheat ([12]; Preemergence, 125 g ai/ha) | Plant response rating (scale 0 to 100), Velvetleaf ([13]; Postemergence, 16 g ai/ha)
25: Morningglory plant response rating [2, 17] | Morningglory plant response rating [2, 18] | Plant response rating, Johnsongrass [6, 19]
98: Plant response rating (scale 0 to 100), Foxtail, Giant ([3]; Preemergence, 125 g ai/ha) | Plant response rating (scale 0 to 100), Waterhemp ([9]; Preemergence, 125 g ai/ha) | Plant response rating, Waterhemp [9, 22] | Plant response rating (scale 0 to 100), Galium ([16]; Preemergence, 125 g ai/ha) | Plant response rating, Galium [16, 22]
5: Foxtail, Giant plant response rating [3, 17] | Plant response rating, Foxtail, Giant [3, 18] | Plant response rating, Foxtail, Giant [3, 20] | Plant response rating (scale 0 to 100), Barnyardgrass ([8]; Postemergence, 16 g ai/ha) | Barnyardgrass plant response rating [8, 17] | Plant response rating, Barnyardgrass [8, 18] | Plant response rating (scale 0 to 100), Corn (corn (Zea mays); Postemergence, 16 g ai/ha) | Plant response rating, Corn (corn (Zea mays); [18]) | Plant response rating, Corn (corn (Zea mays); [19]) | Plant response rating, Corn (corn (Zea mays); [21]) | Plant response rating, Corn (corn (Zea mays); [22]) | Plant response rating, Soybean (soybean (Glycine max); [20]) | Wheat plant response rating [12, 18] | Plant response rating, Ryegrass, Italian [14, 19] | Plant response rating, Crabgrass, Large [15, 18] | Plant response rating, Crabgrass, Large [15, 19]
100: Plant response rating (scale 0 to 100), Oilseed Rape ([1]; Preemergence, 125 g ai/ha) | Plant response rating, Oilseed Rape [1, 21] | Plant response rating, Oilseed Rape [1, 22] | Plant response rating (scale 0 to 100), Pigweed ([4]; Preemergence, 125 g ai/ha) | Plant response rating, Pigweed [4, 20] | Plant response rating, Pigweed [4, 21] | Plant response rating, Pigweed [4, 22] | Plant response rating (scale 0 to 100), Barnyardgrass ([8]; Preemergence, 125 g ai/ha) | Plant response rating, Waterhemp [9, 21] | Plant response rating (scale 0 to 100), Velvetleaf ([13]; Preemergence, 125 g ai/ha) | Plant response rating, Velvetleaf [13, 22] | Plant response rating (scale 0 to 100), Crabgrass, Large ([15]; Preemergence, 125 g ai/ha) | Plant response rating, Crabgrass, Large [15, 22]
80: Plant response rating, Oilseed Rape [1, 19] | Plant response rating, Pigweed [4, 19] | Waterhemp plant response rating [9, 18] | Plant response rating, Lambsquarters [10, 21] | Plant response rating, Lambsquarters [10, 22] | Plant response rating, Galium [16, 19] | Plant response rating, Galium [16, 21]
70: Oilseed Rape plant response rating [1, 17] | Plant response rating, Foxtail, Giant [3, 21] | Pigweed plant response rating [4, 18] | Ragweed plant response rating [5, 18] | Plant response rating (scale 0 to 100), Johnsongrass ([6]; Preemergence, 125 g ai/ha) | Waterhemp plant response rating [9, 17] | Lambsquarters plant response rating [10, 17] | Lambsquarters plant response rating [10, 18] | Plant response rating, Soybean (soybean (Glycine max); [19]) | Plant response rating, Blackgrass [11, 22] | Plant response rating, Velvetleaf [13, 19] | Plant response rating, Velvetleaf [13, 20] | Plant response rating (scale 0 to 100), Galium ([16]; Postemergence, 16 g ai/ha) | Galium plant response rating [16, 17]
65: Plant response rating, Barnyardgrass [8, 22] | Plant response rating, Galium [16, 18]
60: Oilseed Rape plant response rating [1, 18] | Pigweed plant response rating [4, 17] | Plant response rating, Ragweed [5, 19] | Plant response rating (scale 0 to 100), Waterhemp ([9]; Postemergence, 16 g ai/ha) | Plant response rating (scale 0 to 100), Lambsquarters ([10]; Postemergence, 16 g ai/ha) | Plant response rating, Soybean (soybean (Glycine max); [22]) | Velvetleaf plant response rating [13, 17] | Plant response rating (scale 0 to 100), Ryegrass, Italian ([14]; Preemergence, 125 g ai/ha)
45: Plant response rating (scale 0 to 100), Oilseed Rape ([1]; Postemergence, 16 g ai/ha) | Plant response rating (scale 0 to 100), Morningglory ([2]; Preemergence, 125 g ai/ha) | Plant response rating, Johnsongrass [6, 22] | Plant response rating (scale 0 to 100), Nutsedge, Yellow ([7]; Preemergence, 125 g ai/ha) | Soybean plant response rating (soybean (Glycine max); [18]) | Velvetleaf plant response rating [13, 18]
75: Plant response rating, Crabgrass, Large [15, 20]
20: Corn plant response rating (corn (Zea mays); [17]) | Plant response rating (scale 0 to 100), Soybean (soybean (Glycine max); Postemergence, 16 g ai/ha) | Plant response rating, Ryegrass, Italian [14, 21] | Plant response rating, Ryegrass, Italian [14, 22]
55: Plant response rating (scale 0 to 100), Pigweed ([4]; Postemergence, 16 g ai/ha) | Plant response rating, Ragweed [5, 22] | Plant response rating, Barnyardgrass [8, 21]
10: Plant response rating, Johnsongrass [6, 20] | Plant response rating, Johnsongrass [6, 21] | Nutsedge, Yellow plant response rating [7, 18] | Plant response rating, Nutsedge, Yellow [7, 19] | Plant response rating, Nutsedge, Yellow [7, 22] | Plant response rating, Barnyardgrass [8, 19] | Blackgrass plant response rating [11, 17] | Plant response rating, Blackgrass [11, 19] | Wheat plant response rating [12, 17] | Plant response rating, Wheat [12, 19]
40: Plant response rating (scale 0 to 100), Morningglory ([2]; Postemergence, 16 g ai/ha) | Plant response rating (scale 0 to 100), Corn (corn (Zea mays); Preemergence, 125 g ai/ha) | Soybean plant response rating (soybean (Glycine max); [17]) | Plant response rating, Galium [16, 20]
50: Ragweed plant response rating [5, 17] | Plant response rating, Ragweed [5, 21]
35: Plant response rating, Morningglory [2, 19] | Plant response rating, Morningglory [2, 22] | Plant response rating (scale 0 to 100), Ragweed ([5]; Postemergence, 16 g ai/ha) | Plant response rating, Ragweed [5, 20] | Plant response rating, Lambsquarters [10, 20] | Plant response rating, Soybean (soybean (Glycine max); [21])
